The target of this experiment is α-glucosidase (EC 3.2.1.20, Saccharomyces cerevisiae type I). Description: enzyme inhibition with pNPG substrate, absorbance at […] nm. The experiment is classed as biochemical.

On to `O=c1cc(-c2ccc(O)c(O)c2)oc2cc(O)cc(O)c12` [luteolin], for which the IC50 was 16.2 µM.
